These molecules were tested against Plasminogen activator inhibitor 1 (Homo sapiens, UniProt P05121) (assay: ChEBML_222791).
Source text: Inhibitory activity against human plasminogen activator inhibitor-1 (PAI-1) evaluated by chromogenic assay.

Chain of Plasminogen activator inhibitor 1 (P05121 whole entry): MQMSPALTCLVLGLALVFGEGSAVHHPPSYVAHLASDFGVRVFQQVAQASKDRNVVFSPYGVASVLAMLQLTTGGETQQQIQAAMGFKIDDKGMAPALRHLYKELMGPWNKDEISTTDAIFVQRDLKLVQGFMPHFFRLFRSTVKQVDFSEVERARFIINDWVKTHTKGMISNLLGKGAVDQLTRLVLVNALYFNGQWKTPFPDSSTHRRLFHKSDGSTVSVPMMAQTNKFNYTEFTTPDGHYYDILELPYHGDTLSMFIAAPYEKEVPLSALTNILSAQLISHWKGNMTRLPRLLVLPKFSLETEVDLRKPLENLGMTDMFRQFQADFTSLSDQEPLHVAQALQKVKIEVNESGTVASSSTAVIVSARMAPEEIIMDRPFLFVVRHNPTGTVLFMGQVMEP

IC50, > 50 µM:
O=C(O)CCCCCCCOc1ccc(NC(=O)C2C(=O)CN(c3ccccc3Cl)C2=O)cc1 (centres undefined) [8-(4-{[1-(2-Chloro-phenyl)-4-hydroxy-2-oxo-2,5-dihydro-1H-pyrrole-3-carbonyl]-amino}-phenoxy)-octanoic acid], CC(=O)Nc1ccc(N2CC(=O)C(C(=O)Nc3ccc(OCCCCCCCC(=O)O)cc3)C2=O)cc1 (centres undefined) [8-(4-{[1-(4-Acetylamino-phenyl)-4-hydroxy-2-oxo-2,5-dihydro-1H-pyrrole-3-carbonyl]-amino}-phenoxy)-octanoic acid], COC(=O)CCCCCCCOc1ccc(NC(=O)C2C(=O)CN(c3ccc(Cl)cc3)C2=O)cc1 (centres undefined) [8-(4-{[1-(4-Chloro-phenyl)-4-hydroxy-2-oxo-2,5-dihydro-1H-pyrrole-3-carbonyl]-amino}-phenoxy)-octanoic acid methyl ester], COc1ccccc1N1CC(=O)C(C(=O)Nc2ccc(OCCCCCCCC(=O)O)cc2)C1=O (centres undefined) [8-(4-{[4-Hydroxy-1-(2-methoxy-phenyl)-2-oxo-2,5-dihydro-1H-pyrrole-3-carbonyl]-amino}-phenoxy)-octanoic acid], O=C(O)CCCCCCCOc1ccc(NC(=O)C2C(=O)CN(c3ccc(N4CCOCC4)cc3)C2=O)cc1 (centres undefined) [8-(4-{[4-Hydroxy-1-(4-morpholin-4-yl-phenyl)-2-oxo-2,5-dihydro-1H-pyrrole-3-carbonyl]-amino}-phenoxy)-octanoic acid], O=C(O)CCCCCCCOc1ccc(NC(=O)C2C(=O)NC(Cc3ccc(O)cc3)C2=O)cc1 (centres undefined) [8-(4-{[4-Hydroxy-5-(4-hydroxy-benzyl)-2-oxo-2,5-dihydro-1H-pyrrole-3-carbonyl]-amino}-phenoxy)-octanoic acid], O=C(O)CCCCCCCOc1ccc(NC(=O)C2C(=O)CN(Cc3ccccc3)C2=O)cc1 (centres undefined) [8-{4-[(1-Benzyl-4-hydroxy-2-oxo-2,5-dihydro-1H-pyrrole-3-carbonyl)-amino]-phenoxy}-octanoic acid], O=C(O)CCCCCCCOc1ccc(NC(=O)C2C(=O)CN(c3cccc4ccccc34)C2=O)cc1 (centres undefined) [8-{4-[(4-Hydroxy-1-naphthalen-1-yl-2-oxo-2,5-dihydro-1H-pyrrole-3-carbonyl)-amino]-phenoxy}-octanoic acid], CC1C(=O)C(C(=O)Nc2ccc(OCCCCCCCC(=O)O)cc2)C(=O)N1c1ccccc1 (centres undefined) [8-{4-[(4-Hydroxy-5-methyl-2-oxo-1-phenyl-2,5-dihydro-1H-pyrrole-3-carbonyl)-amino]-phenoxy}-octanoic acid]

— BindingDB's records for doi:10.1016/s0960-894x(02)00078-1 (Xenova, 2002)
